{
  "source": "ChEMBL document CHEMBL5126570",
  "about": "“Synthesis, in vitro, in silico and in vivo hypoglycemic and lipid-lowering effects of 4-benzyloxy-5-benzylidene-1,3-thiazolidine-2,4-diones mediated by dual PPAR α/γ modulation” (Bioorg Med Chem Lett, 2022)",
  "key": {"3T3-L1 [1]": {"system": "3T3-L1", "experiment": "Upregulation of GLUT-4 mRNA expression in adipocyte differentiated mouse 3T3-L1 cells at 10 uM measured after 24 hrs", "type": "functional, cell-based"}, "3T3-L1 [2]": {"system": "3T3-L1", "experiment": "Cytotoxicity against adipocyte differentiated mouse 3T3-L1 cells at 100 uM by MTT assay", "type": "toxicity, cell-based", "conditions": "3t3-l1, 100 µM"}, "3T3-L1 [3]": {"system": "3T3-L1", "experiment": "Upregulation of PPARgamma mRNA expression in adipocyte differentiated mouse 3T3-L1 cells at 10 uM measured after 24 hrs", "type": "functional, cell-based"}, "[4]": {"experiment": "Lipophilicity, logP of compound", "type": "physicochemical", "conditions": "octanol/water"}, "3T3-L1 [5]": {"system": "3T3-L1", "experiment": "Upregulation of PPARgamma mRNA expression in adipocyte differentiated mouse 3T3-L1 cells assessed as fold increase in PPARgamma expression at 10 uM measured after 24 hrs", "type": "functional"}, "[6]": {"target": "T1, Peroxisome proliferator-activated receptor gamma (Homo sapiens) (UniProt P37231)", "T1 sequence (whole entry)": "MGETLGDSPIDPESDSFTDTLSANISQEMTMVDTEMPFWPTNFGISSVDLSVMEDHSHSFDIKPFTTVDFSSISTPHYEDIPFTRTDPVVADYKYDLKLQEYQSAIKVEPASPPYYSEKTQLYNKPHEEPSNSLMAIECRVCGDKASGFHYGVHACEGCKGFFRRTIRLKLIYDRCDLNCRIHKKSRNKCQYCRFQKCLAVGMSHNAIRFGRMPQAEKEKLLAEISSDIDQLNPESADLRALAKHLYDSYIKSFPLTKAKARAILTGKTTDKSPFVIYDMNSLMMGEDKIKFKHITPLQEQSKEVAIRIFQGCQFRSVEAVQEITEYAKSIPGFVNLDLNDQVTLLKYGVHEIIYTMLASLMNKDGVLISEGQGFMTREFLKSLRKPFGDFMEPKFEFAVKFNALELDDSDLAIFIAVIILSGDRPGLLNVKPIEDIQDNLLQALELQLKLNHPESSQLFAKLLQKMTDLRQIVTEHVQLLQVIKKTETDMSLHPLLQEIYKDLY", "experiment": "Binding affinity to PPARgamma (unknown origin) assessed as change in binding free energy", "conditions": "filed as modulator"}, "Mus musculus [7]": {"system": "Mus musculus", "experiment": "Antidiabetic activity in nicotinamide and streptozotocin induced hyperglycemic mouse model assessed as reduction in triglyceride level at 100 mg/kg, IG administered as single dose and measured on day 5 (reference value: 93 +/- 10 mg/dl)", "type": "functional"}, "Mus musculus [8]": {"system": "Mus musculus", "experiment": "Antidiabetic activity in nicotinamide and streptozotocin induced hyperglycemic mouse model assessed as reduction in triglyceride level at 100 mg/kg, IG administered as single dose and measured on day 1 (reference value: 88 +/- 6 mg/dl)", "type": "functional"}, "Mus musculus [9]": {"system": "Mus musculus", "experiment": "Antidiabetic activity in nicotinamide and streptozotocin induced hyperglycemic mouse model assessed as reduction in triglyceride level at 100 mg/kg, IG administered as single dose and measured on day 3 (reference value: 95 +/- 5 mg/dl)", "type": "functional"}, "3T3-L1 [10]": {"system": "3T3-L1", "experiment": "Upregulation of PPARalpha mRNA expression in adipocyte differentiated mouse 3T3-L1 cells assessed as fold increase in PPARalpha expression at 10 uM measured after 24 hrs", "type": "functional"}, "Mus musculus [11]": {"system": "Mus musculus", "experiment": "Antidiabetic activity in nicotinamide and streptozotocin induced hyperglycemic mouse model assessed as reduction in blood glucose at 100 mg/kg, IG administered as single dose and measured after 7 hrs", "type": "functional", "parameters": "scale not given: the % may be the effect or the level left"}, "Mus musculus [12]": {"system": "Mus musculus", "experiment": "Antidiabetic activity in nicotinamide and streptozotocin induced hyperglycemic mouse model assessed as reduction in triglyceride level at 100 mg/kg, IG administered as single dose and measured on day 0 (reference value: 92 +/- 10 mg/dl)", "type": "functional"}},
  "note": "Calls of active or inactive are those of the source. The rule behind the calls is not given here.",
  "data": [
    {"compound": "COc1cc(/C=C2\\SC(=O)NC2=O)ccc1OCc1ccc(Cl)cc1", "values": [
      {"measurement": "Activity", "setting": "3T3-L1 [1]", "result": "Active"},
      {"measurement": "Activity", "setting": "3T3-L1 [2]", "result": "Non-Toxic"},
      {"measurement": "Activity", "setting": "3T3-L1 [3]", "result": "Active"}
    ]},
    {"compound": "O=C1NC(=O)/C(=C/c2ccc(OCc3ccc(Cl)cc3)cc2)S1", "values": [
      {"measurement": "logP", "setting": "[4]", "result": 3.53},
      {"measurement": "fold change (FC)", "setting": "3T3-L1 [5]", "result": 5},
      {"measurement": "deltaG", "setting": "[6]", "result": -7.69},
      {"measurement": "Activity", "setting": "Mus musculus [7]", "result": 75, "unit": "mg/dL"},
      {"measurement": "Activity", "setting": "Mus musculus [8]", "result": 75, "unit": "mg/dL"},
      {"measurement": "Activity", "setting": "3T3-L1 [1]", "result": "Active"},
      {"measurement": "Activity", "setting": "Mus musculus [9]", "result": 77, "unit": "mg/dL"},
      {"measurement": "fold change (FC)", "setting": "3T3-L1 [10]", "result": 2},
      {"measurement": "Activity", "setting": "3T3-L1 [2]", "result": "Non-Toxic"},
      {"measurement": "Activity", "setting": "Mus musculus [11]", "result": -68, "unit": "%"},
      {"measurement": "Activity", "setting": "Mus musculus [12]", "result": 90, "unit": "mg/dL"}
    ]},
    {"compound": "COc1cc(/C=C2\\SC(=O)NC2=O)ccc1OCc1ccc(C)cc1", "values": [
      {"measurement": "Activity", "setting": "3T3-L1 [2]", "result": "Non-Toxic"}
    ]},
    {"compound": "COc1cc(/C=C2\\SC(=O)NC2=O)ccc1OCc1ccccc1C#N", "values": [
      {"measurement": "Activity", "setting": "3T3-L1 [2]", "result": "Non-Toxic"}
    ]},
    {"compound": "O=C1N=C(O)S/C1=C\\c1ccc(OCc2ccccc2)cc1", "values": [
      {"measurement": "deltaG", "setting": "[6]", "result": -7.43},
      {"measurement": "Activity", "setting": "Mus musculus [7]", "result": 62, "unit": "mg/dL"},
      {"measurement": "Activity", "setting": "Mus musculus [8]", "result": 70, "unit": "mg/dL"},
      {"measurement": "Activity", "setting": "3T3-L1 [1]", "result": "Active"},
      {"measurement": "Activity", "setting": "Mus musculus [9]", "result": 69, "unit": "mg/dL"},
      {"measurement": "fold change (FC)", "setting": "3T3-L1 [10]", "result": 2},
      {"measurement": "Activity", "setting": "Mus musculus [11]", "result": 38, "unit": "%"},
      {"measurement": "Activity", "setting": "Mus musculus [12]", "result": 97, "unit": "mg/dL"},
      {"measurement": "Activity", "setting": "3T3-L1 [3]", "result": "Active"}
    ]},
    {"compound": "N#Cc1ccccc1-c1ccc(COc2ccc(/C=C3\\SC(=O)NC3=O)cc2)cc1", "values": [
      {"measurement": "logP", "setting": "[4]", "result": 4.94},
      {"measurement": "deltaG", "setting": "[6]", "result": -7.84}
    ]},
    {"compound": "N#Cc1ccccc1COc1ccc(/C=C2\\SC(=O)NC2=O)cc1", "values": [
      {"measurement": "Activity", "setting": "3T3-L1 [2]", "result": "Non-Toxic"},
      {"measurement": "Activity", "setting": "3T3-L1 [3]", "result": "Active"}
    ]},
    {"compound": "CC(C)OC(=O)C(C)(C)Oc1ccc(C(=O)c2ccc(Cl)cc2)cc1", "note": "[FENOFIBRATE]", "values": [
      {"measurement": "Activity", "setting": "Mus musculus [7]", "result": 58, "unit": "mg/dL"},
      {"measurement": "Activity", "setting": "Mus musculus [8]", "result": 65, "unit": "mg/dL"},
      {"measurement": "Activity", "setting": "Mus musculus [9]", "result": 62, "unit": "mg/dL"},
      {"measurement": "Activity", "setting": "Mus musculus [12]", "result": 88, "unit": "mg/dL"}
    ]},
    {"compound": "O=C1NC(=O)/C(=C/c2ccc(OCc3ccccc3)cc2)S1", "values": [
      {"measurement": "logP", "setting": "[4]", "result": 3},
      {"measurement": "Activity", "setting": "3T3-L1 [2]", "result": "Non-Toxic"}
    ]},
    {"compound": "Cc1ccc(COc2ccc(/C=C3\\SC(O)=NC3=O)cc2)cc1", "values": [
      {"measurement": "logP", "setting": "[4]", "result": 3.33},
      {"measurement": "fold change (FC)", "setting": "3T3-L1 [5]", "result": 5},
      {"measurement": "deltaG", "setting": "[6]", "result": -7.72},
      {"measurement": "Activity", "setting": "Mus musculus [7]", "result": 70, "unit": "mg/dL"},
      {"measurement": "Activity", "setting": "Mus musculus [8]", "result": 88, "unit": "mg/dL"},
      {"measurement": "Activity", "setting": "3T3-L1 [1]", "result": "Active"},
      {"measurement": "Activity", "setting": "Mus musculus [9]", "result": 74, "unit": "mg/dL"},
      {"measurement": "fold change (FC)", "setting": "3T3-L1 [10]", "result": 2},
      {"measurement": "Activity", "setting": "3T3-L1 [2]", "result": "Non-Toxic"},
      {"measurement": "Activity", "setting": "Mus musculus [11]", "result": 82, "unit": "%"},
      {"measurement": "Activity", "setting": "Mus musculus [12]", "result": 93, "unit": "mg/dL"}
    ]},
    {"compound": "COc1cc(/C=C2\\SC(=O)NC2=O)ccc1OCc1ccc(-c2ccccc2C#N)cc1", "values": [
      {"measurement": "Activity", "setting": "3T3-L1 [1]", "result": "Active"},
      {"measurement": "Activity", "setting": "3T3-L1 [2]", "result": "Non-Toxic"}
    ]},
    {"compound": "COc1cc(/C=C2\\SC(=O)NC2=O)ccc1OCc1ccccc1", "values": [
      {"measurement": "Activity", "setting": "3T3-L1 [1]", "result": "Active"},
      {"measurement": "Activity", "setting": "3T3-L1 [2]", "result": "Non-Toxic"}
    ]}
  ]
}
